Reference: PMC6271780, “Determination of Bioactive Components in Chinese Herbal Formulae and Pharmacokinetics of Rhein in Rats by UPLC-MS/MS” (Molecules, 2014)

Tests used:
[1] = Comparative pharmacokinetics of rhein in rats after oral rhein, rhubarb or SHXXT (plasma, UPLC-MS/MS); assay type: in vivo, Sprague-Dawley rats
Description: All animal experimental protocols were reviewed and approved by the Institutional Animal Care and Use Committee (IACUC number: 1011202) of National Yang-Ming University. Male specific pathogen-free Sprague-Dawley rats were obtained from the Laboratory Animal Center of the National Yang-Ming University, Taipei, Taiwan. The animals had free access to food (laboratory rodent diet 5P14, PMI Feeds, Richmond, IN, USA) and water. For pharmacokinetic study, Sprague-Dawley rats weighing 220 ± 20 g were anesthetized with pentobarbital (50 mg/kg, i.p.) for cannulation. A polyethylene tube (PE50) was implanted into the left carotid artery for blood sampling. The cannula was exteriorized, fixed in the dorsal region of the neck. Patency of the tube was maintained by flushing with heparinized saline (20 IU/mL). After surgery, the rats were kept in cages individually and allowed to recover for one day. The dose of herbal formula for translation from human to animal is recommended by the US Food and Drug Administration guidelines as the following conversion equation : Human equivalent dose (HED, mg/kg) = animal dose (mg/kg) × (animal Km/human Km). Study on pharmacokinetics of rhein at 50, 100, and 200 mg in human (60 kg in adults) has been investigated, and therefore, rhein at 11.9 mg/kg was studied in this study according to the dose translation equation. Briefly, the pure compound rhein, the rhubarb extract, and the SHXXT formula suspended in water at doses of 11.9 mg/kg, 5.2 g/kg, and 5 g/kg were individually administered to rats by oral gavage. The doses of rhubarb extract and SHXXT extract were equivalent to rhein administration dose of 11.9 mg/kg. About 200 µL of blood samples was withdrawn from the cannula implanted in the carotid artery and placed into a heparin-rinsed vial at 0, 15, 30, 45, 60, 90, 120, 150, 180, 240, 300 and 360 min. The method of plasma sample preparation was slightly modified from the previous study. For quantitative analysis, the plasma sample (50 µL) was vortex-mixed with acetonitrile (100 µL) for protein precipitation. Data from these samples were used to construct the pharmacokinetic curve of rhein. The plasma sample was diluted by blank plasma sample at an appropriate ratio before analysis if the rhein concentration was excess 2500 ng/mL. Pharmacokinetic calculations were performed on each individual set of data using the pharmacokinetic software WinNonlin Standard Edition, version 1.1 (Pharsight Corp., Mountain View, CA, USA) by noncompartmental methods.

[2] = parameters: method as in PMID 21945452; conditions: Chinese healthy subjects, single oral administration, range 50–200 mg; cited from earlier work
[3] = parameters: method as in PMID 24214833; conditions: cited from earlier work; for detection in rat plasma, decoction group: after oral administration of SHXXT decoction; for detection in rat plasma, maceration group: after oral administration of SHXXT maceration
[4] = parameters: method as in PMID 19737807; conditions: after SHXXT; cited from earlier work
[5] = after oral administration of SHXXT
[6] = male, Sprague-Dawley, po, rhein in rat plasma, rhein 11.9 mg/kg, rhubarb 5.2 g/kg or SHXXT 5 g/kg (each equivalent to rhein 11.9 mg/kg), n = 6, mean ± SD
[7] = rhein in rat plasma, p.o., rhein 11.9 mg/kg, rhubarb 5.2 g/kg or SHXXT 5 g/kg (each equivalent to rhein 11.9 mg/kg), n = 6, mean ± SD

| Compound | free (unconjugated) form detected in rat plasma [1, 5] | detection in rat plasma, decoction group [3] | detection in rat plasma, maceration group [3] | other results |
| --- | --- | --- | --- | --- |
| c1c2c(cc3c1OCO3)-c1cc3ccc4c(c3c[n+]1CC2)OCO4 [coptisine] |  | detected | absent |  |
| COc1cc2c(cc1OC)-c1cc3ccc(OC)c(OC)c3c[n+]1CC2 [palmatine] |  | detected | absent | free (unconjugated) form detected in rat plasma ([1]; rat, in vivo, po): not detected |
| COc1cc2c(cc1O)CC[n+]1cc3c(OC)c(OC)ccc3cc1-2 [jatrorrhizine] |  | detected | absent |  |

Continued, in another order:

| free (unconjugated) form detected in rat plasma [1, 5] | Compound | detection in rat plasma, decoction group [3] | detection in rat plasma, maceration group [3] | other results |
| --- | --- | --- | --- | --- |
| not detected | O=C(O)[C@H]1O[C@@H](Oc2cc3oc(-c4ccccc4)cc(=O)c3c(O)c2O)[C@H](O)[C@@H](O)[C@@H]1O [baicalin] |  |  |  |
| existed in the free form | O=C(O)c1cc(O)c2c(c1)C(=O)c1cccc(O)c1C2=O [Rhein, 4,5-dihydroxy-9,10-dioxoanthracene-2-carboxylic acid] |  |  | dose linearity of pharmacokinetics [2]: linear pharmacokinetics; MRT ([1]; male, Sprague-Dawley, po, rhein in rat plasma, p.o., rhein 11.9 mg/kg, rhubarb 5.2 g/kg or SHXXT 5 g/kg (each equivalent to rhein 11.9 mg/kg), n = 6, mean ± SD, read-out: MRT (mean residence time) (converted)): 1.87 h; half-life ([1]; male, Sprague-Dawley, po, rhein in rat plasma, p.o., rhein 11.9 mg/kg, rhubarb 5.2 g/kg or SHXXT 5 g/kg (each equivalent to rhein 11.9 mg/kg), n = 6, mean ± SD, read-out: T1/2 (elimination half-life)): 2.4 ± 0.287 h; AUC [1, 6]: 3130 ng·h/mL; Cmax [1, 6]: 2450 ± 550 ng/mL; Tmax [1, 6]: 0.417 h; CL (total body clearance) [1, 7]: 58 ± 7.89 mL/min/kg; Vss (volume of distribution) [1, 7]: 12.2 ± 2.10 L/kg |
| not detected | COc1ccc2cc3[n+](cc2c1OC)CCc1cc2c(cc1-3)OCO2 [berberine] | detected | absent |  |
| not detected | Cc1cc(O)c2c(c1)C(=O)c1cc(O)cc(O)c1C2=O [emodin] |  |  | forms determined in serum [4]: only the conjugated metabolites |
| not detected | O=c1cc(-c2ccccc2)oc2cc(O)c(O)c(O)c12 [baicalein] |  |  | forms determined in serum [4]: only the conjugated metabolites |
